Experimental data reported in patent publication US20240254129A1, “HETEROCYCLIC COMPOUNDS AND USES THEREOF” (Kumquat Biosciences Inc., priority 2021, published 2024).
Like-named read-outs stand apart in the source and are kept apart here.

Legend:
[1] = target: GST-tagged K-Ras mutant / His-tagged hSOS1 (Homo sapiens, UniProt P01116); test: HTRF assay, K-Ras mutant / SOS1 interaction; type: binding; settings: read-out: IC50 against mutant Kras
How it was run: (§1)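 Compounds tested in duplicate from 10 μM down to 0.01 μM, incubated about 10 min or longer with GST-K-Ras/anti-GST-Eu and His-hSOS1/anti-6His-XL665 in ~5 mM HEPES pH 7.4 buffer with ~150 mM NaCl, DTT, BSA and Igepal. IC50 derived from 665/620 nm emission ratio.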

wildtype Kras / hSOS1 = target: T1, wildtype Kras / hSOS1 (Homo sapiens, UniProt P01116); test: HTRF assay, wildtype Kras / SOS1 interaction; type: binding; settings: read-out: IC50 against wildtype Kras
T1 construct: made in house; host or cells: E. coli BL21 (DE3)
T1 sequence (P01116 1-188 isoform P01116-2): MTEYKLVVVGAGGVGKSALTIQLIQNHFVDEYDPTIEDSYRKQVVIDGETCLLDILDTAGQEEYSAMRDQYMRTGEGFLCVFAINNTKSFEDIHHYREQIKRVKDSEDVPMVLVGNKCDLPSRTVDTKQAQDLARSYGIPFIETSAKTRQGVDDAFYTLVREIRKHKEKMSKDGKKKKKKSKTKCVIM
How it was run: as §1

[2] = compound nos. 102-196, general methodology of example 5

Chain of GST-tagged K-Ras mutant / His-tagged hSOS1 (P01116 whole entry G12D, form open): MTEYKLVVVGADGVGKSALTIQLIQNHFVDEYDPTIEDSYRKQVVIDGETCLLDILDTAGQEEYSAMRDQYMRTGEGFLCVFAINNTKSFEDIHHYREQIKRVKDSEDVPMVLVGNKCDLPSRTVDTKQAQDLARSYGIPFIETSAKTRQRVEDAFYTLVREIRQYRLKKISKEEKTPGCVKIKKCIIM

| Compound | IC50 ([1]; compound nos. 401-703) [nM] | IC50 (wildtype Kras / hSOS1; compound nos. 401-703) [nM] | IC50 [1, 2] [nM] | IC50 (wildtype Kras / hSOS1; [2]) [nM] |
| --- | --- | --- | --- | --- |
| Cc1ccc2cnn(C#N)c2c1-c1c(Cl)cc2c(N3CC4CCC(C3)N4)nc(OC[C@@]34CCCN3C[C@H](F)C4)nc2c1F [Compound 678, 7-(4-(3,8-diazabicyclo-[3.2.1]octan-3-yl)-6-chloro-8-fluoro-2-(((2R,7aS)-2-fluorotetrahydro-1H-pyrrol-izin-7a(5H)-yl)methoxy)-quinazolin-7-yl)-6-methyl-1H-indazole-1-carbonitrile] | > 500 | > 500 |  |  |
| Nc1c(-c2ccccc2)cccc1-c1c(Cl)cc2c(N3CC4CCC(C3)N4)nc(OCC34CCCN3CCC4)nc2c1F [Compound 683, 3-(4-(3,8-diazabicyclo-[3.2.1]-octan-3-yl)-6-chloro-8-fluoro-2-((tetrahydro-1H-pyrrolizin-7a(5H)-yl)meth-oxy)quinazolin-7-yl)-[1,1′-biphenyl]-2-amine] | > 500 | > 500 |  |  |
| C#Cc1cccc2cc(O)cc(-c3ccc4c(N5CCNCC(F)(F)C5)nc(OC[C@@]56CCCN5C[C@H](F)C6)nc4c3F)c12 [Compound 609, 4-(4-(6,6-difluoro-1,4-diazepan-1-yl)-8-fluoro-2-(((2R,7aS)-2-fluorotetra-hydro-1H-pyrrolizin-7a(5H)-yl)methoxy)quin-azolin-7-yl)-5-ethynylnaph-thalen-2-ol] | < 500 | > 500 |  |  |
| Nc1nc2c(-c3c(Cl)cc4c(N5CCCC(N)CC5)nc(OC[C@@]56CCCN5C[C@H](F)C6)nc4c3F)ccc(F)c2s1 (stereo partly drawn) [Compound 431, 4-(4-(4-aminoazepan-1-yl)-6-chloro-8-fluoro-2-(((2R,7aS)-2-fluorotetra-hydro-1H-pyrrolizin-7a(5H)-yl)methoxy)quinazolin-7-yl)-7-fluorobenzo[d]thiazol-2-amine] | < 500 | < 500 |  |  |
| Nc1nc2c(-c3c(Cl)cc4c(N5CCCOCC5)nc(OC[C@@]56CCCN5C[C@H](F)C6)nc4c3F)cccc2o1 [Compound 167] |  |  | < 500 | < 500 |
| CN1CCC[C@H]1COc1nc(N2CCNCC(F)(F)C2)c2cc(C#N)c(-c3cccc4sc(N)nc34)c(F)c2n1 [Compound 125, 7-(2-aminobenzo[d]thiazol-4-yl)-4-(6,6-difluoro-1,4-diazepan-1-yl)-8-fluoro-2-(((S)-1-methylpyrrolidin-2-yl)methoxy)quinazoline-6-carbonitrile] |  |  | > 500 | > 500 |
| Nc1nc2c(-c3c(Cl)cc4c(N5C[C@H]6CC[C@@H](C5)C6(F)F)nc(OC[C@@]56CCCN5C[C@H](F)C6)nc4c3F)ccc(F)c2s1 [Compound 655, 4-(6-chloro-4-((1R,5S)-8,8-difluoro-3-azabicyclo[3.2.1]-octan-3-yl)-8-fluoro-2-(((2R,7aS)-2-fluorotetra-hydro-1H-pyrrolizin-7a(5H)-yl)methoxy)quinazolin-7-yl)-7-fluorobenzo[d]thiazol-2-amine] | > 500 | > 500 |  |  |
| Cc1ccnc(C(C)C)c1-n1c(=O)nc(N2CCNCC(F)(F)C2)c2cc(F)c(-c3c(O)cccc3F)nc21 [Compound 195, 4-(6,6-difluoro-1,4-diazepan-1-yl)-6-fluoro-7-(2-fluoro-6-hydroxyphenyl)-1-(2-isopropyl-4-methylpyridin-3-yl)pyrido[2,3-d]pyrimidin-2(1H)-one] |  |  | > 500 | > 500 |
| CO[C@H]1C[C@@H](COc2nc(N3CCNCC(F)(F)C3)c3cc(Cl)c(-c4cccc5sc(N)nc45)c(F)c3n2)N(C)C1 [Compound 126, 4-(6-chloro-4-(6,6-difluoro-1,4-diazepan-1-yl)-8-fluoro-2-(((2S,4S)-4-methoxy-1-methylpyrrolidin-2-yl)-methoxy)quinazolin-7-yl)-benzo[d]thiazol-2-amine] |  |  | > 500 | < 500 |
| Nc1nc2c(-c3c(Cl)cc4c(N5CC6CCC(C5)N6)nc(OCC56CCCN5CCC6)nc4c3F)cc(Cl)cc2s1 [Compound 615, 4-(4-(3,8-diazabicyclo-[3.2.1]octan-3-yl)-6-chloro-8-fluoro-2-((tetrahydro-1H-pyrrolizin-7a(5H)-yl)meth-oxy)quinazolin-7-yl)-6-chlorobenzo[d]thiazol-2-amine] | < 500 | > 500 |  |  |
| Oc1cc(N2CCc3nc(OCC45CCCN4CCC5)nc(N4C[C@H]5CC[C@@H](C4)N5)c3CC2)c2ccccc2c1 [Compound 521, 4-(4-((1R,5S)-3,8-diazabicyclo[3.2.1]octan-3-yl)-2-((tetrahydro-1H-pyrrolizin-7a(5H)-yl)methoxy)-5,6,8,9-tetrahydro-7H-pyrimido[4,5-d]azepin-7-yl)naphthalen-2-ol] | > 500 | > 500 |  |  |
| CN1CCC[C@H]1COc1nc(N2CCCC3(CNC3)C2)c2cc(Cl)c(-c3cccc4sc(N)nc34)c(F)c2n1 [Compound 132, 4-(6-chloro-8-fluoro-2-(((S)-1-methylpyrrolidin-2-yl)-methoxy)-4-(2,6-diazaspiro-[3.5]nonan-6-yl)quinazolin-7-yl)benzo[d]thiazol-2-amine] |  |  | > 500 | > 500 |
| Fc1c(N2CCCc3ccccc32)ccc2c(N3CCCCCC3)nc(OCC34CCCN3CCC4)nc12 [Compound 580, 4-(azepan-1-yl)-7-(3,4-dihydroquinolin-1(2H)-yl)-8-fluoro-2-((tetrahydro-1H-pyrrolizin-7a(5H)-yl)meth-oxy)quinazoline] | > 500 | > 500 |  |  |
| CN1CCC[C@H]1COc1nc(N2CCCCC(O)C2)c2cc(Cl)c(-c3cccc4sc(N)nc34)c(F)c2n1 (stereo partly drawn) [Compound 562, 1-(7-(2-aminobenzo[d]-thiazol-4-yl)-6-chloro-8-fluoro-2-(((S)-1-methyl-pyrrolidin-2-yl)methoxy)-quinazolin-4-yl)azepan-3-ol] | < 500 | > 500 |  |  |
| Cc1ccc2oc(N)nc2c1-c1c(Cl)cc2c(N3CC4CCC(C3)N4)nc(OC[C@@]34CCCN3C[C@H](F)C4)nc2c1F [Compound 546, 4-(4-(3,8-diazabicyclo-[3.2.1]octan-3-yl)-6-chloro-8-fluoro-2-(((2R,7aS)-2-fluorotetrahydro-1H-pyrrol-izin-7a(5H)-yl)methoxy)-quinazolin-7-yl)-5-methyl-benzo[d]oxazol-2-amine] | < 500 | > 500 |  |  |
| Oc1cc(-c2c(Cl)cc3c(N4CC5CCC(C4)N5)nc(OCC45CCCC4CCC5)nc3c2F)c2ccccc2c1 (stereo not shown) [Compound 410, 4-(4-(3,8-diazabicyclo-[3.2.1]octan-3-yl)-6-chloro-8-fluoro-2-((hexahydro-pentalen-3a(1H)-yl)meth-oxy)quinazolin-7-yl)naph-thalen-2-ol] | > 500 | < 500 |  |  |
| CNCCN1[C@@H]2CC[C@H]1CN(c1nc(OCC34CCCN3CCC4)nc3c(F)c(-c4ccc(F)c5sc(N)nc45)c(Cl)cc13)C2 [Compound 656, 4-(6-chloro-8-fluoro-4-((1R,5S)-8-(2-(methyl-amino)-ethyl)-3,8-diaza-bicyclo[3.2.1]octan-3-yl)-2-((tetrahydro-1H-pyrrol-izin-7a(5H)-yl)methoxy)-quinazolin-7-yl)-7-fluoro-benzo[d]thiazol-2-amine] | < 500 | > 500 |  |  |
| CN1CCC[C@H]1COc1nc(N2CCCCC(N)C2)c2cc(Cl)c(-c3cccc4sc(N)nc34)c(F)c2n1 (stereo partly drawn) [Compound 672, 4-(4-(3-aminoazepan-1-yl)-6-chloro-8-fluoro-2-(((S)-1-methylpyrrolidin-2-yl)meth-oxy)quinazolin-7-yl)ben-zo[d]thiazol-2-amine] | < 500 | > 500 |  |  |
| CN1CCC[C@H]1COc1nc(N2CCN(C(=O)CN)CC(F)(F)C2)c2cc(Cl)c(-c3cccc4sc(N)nc34)c(F)c2n1 [Compound 141, 2-amino-1-(4-(7-(2-amino-benzo[d]thiazol-4-yl)-6-chloro-8-fluoro-2-(((S)-1-methylpyrrolidin-2-yl)meth-oxy)quinazolin-4-yl)-6,6-difluoro-1,4-diazepan-1-yl)-ethan-1-one] |  |  | > 500 | < 500 |
| Nc1nc2c(-c3ccc4c(N5CC6CCC(C5)N6)nc(OCC56CCCN5CCC6)nc4n3)ccc(F)c2s1 [Compound 412, 4-(4-(3,8-diazabicyclo-[3.2.1]octan-3-yl)-2-((tetra-hydro-1H-pyrrolizin-7a(5H)-yl)methoxy)pyrido[2,3-d]-pyrimidin-7-yl)-7-fluoro-benzo[d]thiazol-2-amine] | > 500 | < 500 |  |  |
| Nc1nc2c(-c3c(Cl)cc4c(N5CCCS(=O)(=O)CC5)nc(OC[C@@]56CCCN5C[C@H](F)C6)nc4c3F)ccc(F)c2s1 [Compound 477, 4-(7-(2-amino-7-fluoroben-zo-[d]thiazol-4-yl)-6-chloro-8-fluoro-2-(((2R,7aS)-2-fluorotetrahydro-1H-pyrrolizin-7a(5H)-yl)meth-oxy)quinazolin-4-yl)-1,4-thiazepane 1,1-dioxide] | < 500 | < 500 |  |  |
| N#Cc1csc2cccc(-c3c(Cl)cc4c(N5CC6CCC(C5)N6)nc(OC[C@@]56CCCN5C[C@H](F)C6)nc4c3F)c12 [Compound 674, 4-(4-(3,8-diazabicyclo-[3.2.1]-octan-3-yl)-6-chloro-8-fluoro-2-(((2R,7aS)-2-fluorotetrahydro-1H-pyrrol-izin-7a(5H)-yl)methoxy)-quinazolin-7-yl)benzo[b]-thiophene-3-carbonitrile] | < 500 | > 500 |  |  |
| CO[C@@H]1CN(C)C[C@H]1Oc1nc(N2CC3CCC(C2)N3)c2cc(CCC#N)c(-c3ccc(F)c4sc(N)nc34)c(F)c2n1 [Compound 424, 3-(7-(2-amino-7-fluoro-benzo[d]thiazol-4-yl)-4-(3,8-diazabicyclo[3.2.1]octan-3-yl)-8-fluoro-2-(((3R,4R)-4-methoxy-1-methylpyrrolidin-3-yl)oxy)quinazolin-6-yl)-propanenitrile] | > 500 | < 500 |  |  |
